Results: US20110009421A1, “COMPOUND HAVING 6-MEMBERED AROMATIC RING” (TAKEDA PHARMACEUTICAL COMPANY LIMITED, priority 2008, published 2011)
Where a name gives a salt, the structure may show the parent alone.

Target: T1, human GPR52 (Homo sapiens, UniProt Q9Y2T5)
T1 construct: expressed in transfected cells; host or cells: CHO (dhfr-) cells
Test: Increased intracellular cAMP levels in human GPR52 expression CHO cells (AlphaScreen cAMP assay)
Assay type: cell-based
Details: 1 μM test compound, 30 min at 37° C., human GPR52 expression CHO (dhfr−) cells; intracellular cAMP level, 100% = 1 μM 3-(6-(2-(3,4-dimethoxyphenyl)ethoxy)pyridin-2-yl)-N-(2-pyrrolidin-1-ylethyl)benzamide, 0% = DMSO
Procedure: Increased Intracellular cAMP Levels in Human GPR52 Expression CHO Cells
1×10^4 human GPR52 expression CHO (dhfr−) cells were incubated with 1 μM test compound for 30 min at 37° C. in 30 μL assay buffer (HBSS (containing Ca^2+ and Mg^2+), 0.5% BSA, 100 μM IBMX, 100 μM Ro 20-1724, 5 mM HEPES (pH 7.55)) using an OptiPlate-384 (by PerkinElmer). The intracellular cAMP level was then assayed with an EnVision (by PerkinElmer) according to the protocol of the AlphaScreen cAMP Assay Kit (by PerkinElmer). The GPR52 agonist activity was calculated, assuming the intracellular cAMP level to be 100% in the presence of 1 μM of 3-(6-(2-(3,4-dimethoxyphenyl)ethoxy)pyridin-2-yl)-N-(2-pyrrolidin-1-ylethyl)benzamide obtained in Reference Example 39 and assuming the intracellular cAMP level to be 0% when DMSO was added instead of test compound.

T1 sequence (Q9Y2T5 whole entry): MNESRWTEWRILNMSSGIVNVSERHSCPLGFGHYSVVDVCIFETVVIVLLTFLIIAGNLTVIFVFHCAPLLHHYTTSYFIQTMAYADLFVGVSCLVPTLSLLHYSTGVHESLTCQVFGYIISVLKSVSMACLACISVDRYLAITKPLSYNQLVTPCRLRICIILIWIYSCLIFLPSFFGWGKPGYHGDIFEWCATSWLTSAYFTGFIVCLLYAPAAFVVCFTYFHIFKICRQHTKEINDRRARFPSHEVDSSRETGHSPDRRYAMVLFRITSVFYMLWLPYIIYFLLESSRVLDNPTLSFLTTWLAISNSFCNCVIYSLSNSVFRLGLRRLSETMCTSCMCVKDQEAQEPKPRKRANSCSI

Row | Compound | GPR52 agonist activity (%)
1 | COc1ccc(CCNc2nccc(-c3cccc(NC(C)=O)c3)n2)cc1OC [Working Example 1, N-(3-(2-(2-(3,4-dimethoxyphenyl)ethylamino)pyrimidin-4-yl)phenyl)acetamide] | 69%
2 | COc1cccc(C(=O)Nc2cccc(-c3ccnc(NCCc4ccc(OC)c(OC)c4)n3)c2)c1 [Working Example 12, N-(3-(2-(2-(3,4-dimethoxyphenyl)ethylamino)pyrimidin-4-yl)phenyl)-3-methoxybenzamide] | 47%
3 | COc1ccc(CCNc2nccc(-c3cccc(NC(=O)CCCN4CCCC4)c3)n2)cc1OC [Working Example 19] | 85%
4 | COc1ccc(CCNc2nccc(-c3cccc(NC(=O)C4CCNCC4)c3)n2)cc1OC [Working Example 22, N-(3-(2-((2-(3,4-dimethoxyphenyl)ethyl)amino)pyrimidin-4-yl)phenyl)piperidine-4-carboxamide hydrochloride] | 80%
5 | COc1ccc(CCNc2nccc(-c3cccc(NC(=O)CC4CCCN4)c3)n2)cc1OC (centres unmarked) [Working Example 25, N-(3-(2-((2-(3,4-Dimethoxyphenyl)ethyl)amino)pyrimidin-4-yl)phenyl)-2-pyrrolidin-2-yl acetamide hydrochloride] | 71%
6 | COc1ccc(CCNc2nccc(-c3cccc(NC(=O)CC4CCCN4C)c3)n2)cc1OC (centres unmarked) [Working Example 28, N-(3-(2-((2-(3,4-dimethoxyphenyl)ethyl)amino)pyrimidin-4-yl)phenyl)-2-(1-methylpyrrolidin-2-yl)acetamide hydrochloride] | 74%
7 | COc1ccc(CCNc2nccc(-c3cccc(NC(=O)CCN(C)C)c3)n2)cc1OC [Working Example 29, N-(3-(2-((2-(3,4-dimethoxyphenyl)ethyl)amino)pyrimidin-4-yl)phenyl)-N^3,N^3-dimethyl-β-alaninamide] | 85%
8 | COc1ccc(CCNc2nccc(-c3cccc(NC(=O)CCCN4CCCCC4)c3)n2)cc1OC [Working Example 31, N-(3-(2-(2-(3,4-Dimethoxy-phenyl)ethylamino)pyrimidin-4-yl)phenyl)-4-(piperidin-1-yl)butanamide] | 98%
9 | COc1ccc(CCNc2nccc(-c3cccc(C(=O)N(C)CCCN(C)C)c3)n2)cc1OC [Working Example 37, 3-(2-(2-(3,4-Dimethoxyphenyl)ethylamino)pyrimidin-4-yl)-N-(3-dimethylaminopropyl)-N-methylbenzamide hydrochloride] | 92%
10 | COc1ccc(CCOc2cccc(-c3cccc(C(=O)NCCN4CCCC4)c3)n2)cc1OC [Working Example 39, 3-(6-(2-(3,4-dimethoxyphenyl)ethoxy)pyridin-2-yl)-N-(2-pyrrolidin-1-ylethyl)benzamide] | 106%
11 | COc1ccc(CCOc2cccc(-c3cccc(C(=O)NCCN4CCCC4)c3)c2)cc1OC [Working Example 40, 3′-(2-(3,4-Dimethoxyphenyl)ethoxy)-N-(2-pyrrolidin-1-ylethyl)biphenyl-3-carboxamide] | 87%
12 | COc1ccc(CCOc2cccc(-c3cccc(C(=O)NC4CCOCC4)c3)n2)cc1OC [Working Example 41, 3-(6-(2-(3,4-Dimethoxyphenyl)ethoxy)pyridin-2-yl)-N-(tetrahydro-2H-pyran-4-yl)benzamide] | 56%
13 | COc1ccc(CCOc2cc(-c3cccc(C(=O)NCCN4CCCC4)c3)ccn2)cc1OC [Working Example 42, 3-(2-(2-(3,4-Dimethoxyphenyl)ethoxy)pyridin-4-yl)-N-(2-pyrrolidin-1-ylethyl)benzamide] | 71%
14 | COc1ccc(CCOc2cncc(-c3cccc(C(=O)NCCN4CCCC4)c3)c2)cc1OC [Working Example 44, 3-(5-(2-(3,4-Dimethoxyphenyl)ethoxy)pyridin-3-yl)-N-(2-pyrrolidin-1-ylethyl)benzamide] | 68%
15 | COc1ccc(CCOc2ccnc(-c3cccc(C(=O)NCCN4CCCC4)c3)n2)cc1OC [Working Example 45, 3-(4-(2-(3,4-Dimethoxyphenyl)ethoxy)pyrimidin-2-yl)-N-(2-pyrrolidin-1-ylethyl)benzamide] | 85%
16 | COc1ccc(CCOc2nccc(-c3cccc(C(=O)NCCN4CCCC4)c3)n2)cc1OC [Working Example 46, 3-(2-(2-(3,4-Dimethoxyphenyl)ethoxy)pyrimidin-4-yl)-N-(2-pyrrolidin-1-ylethyl)benzamide] | 99%
17 | COc1ccc(CCOc2cccc(-c3cccc(C(N)=O)c3)n2)cc1OC [Working Example 49] | 55%
18 | COc1ccc(CCOc2cccc(-c3cccc(NC(=O)NCCN(C)C)c3)n2)cc1OC [Working Example 53] | 113%

Row | Compound | GPR52 agonist activity (%)
19 | Cc1cccc(CCOc2cccc(-c3cccc(C(=O)NCCO)c3)n2)c1 [Working Example 59, N-(2-Hydroxyethyl)-3-(6-(2-(3-methylphenyl)ethoxy)pyridin-2-yl)benzamide] | 84%
20 | O=C(Nc1nccs1)c1cccc(-c2cccc(OCCc3cccc(F)c3)n2)c1 [Working Example 61, 3-(6-(2-(3-Fluorophenyl)ethoxy)pyridin-2-yl)-N-1,3-thiazol-2-ylbenzamide] | 43%
21 | O=C(NCCO)c1cccc(-c2cccc(OCCc3cccc(C(F)(F)F)c3)n2)c1 [Working Example 65, N-(2-hydroxyethyl)-3-(6-(2-(3-(trifluoromethyl)phenyl)ethoxy)pyridin-2-yl)benzamide] | 64%
22 | COc1cccc(CCOc2cccc(-c3cccc(C(=O)NC4CCOCC4)c3)n2)c1 [Working Example 67, 3-(6-(2-(3-Methoxyphenyl)ethoxy)pyridin-2-yl)-N-(tetrahydro-2H-pyran-4-yl)benzamide] | 48%
23 | COc1cccc(CCOc2cccc(-c3cccc(C(=O)NCCO)c3)n2)c1 [Working Example 69, N-(2-hydroxyethyl)-3-(6-(2-(3-methoxyphenyl)ethoxy)pyridin-2-yl)benzamide] | 65%
24 | COc1cccc(CCOc2cccc(-c3cccc(C(=O)Nc4ccc(F)nc4)c3)n2)c1 [Working Example 75, N-(6-Fluoropyridin-3-yl)-3-(6-(2-(3-methoxyphenyl)ethoxy)pyridin-2-yl)benzamide] | 60%
25 | COc1cccc(CCOc2cccc(-c3cccc(C(=O)Nc4ccccn4)c3)n2)c1 [Working Example 76, 3-(6-(2-(3-Methoxyphenyl)ethoxy)pyridin-2-yl)-N-pyridin-2-ylbenzamide] | 52%
26 | O=C(NCCN1CCCC1)c1cccc(-c2cccc(Oc3ccc(Cl)c(Cl)c3)n2)c1 [Working Example 82, 3-(6-(3,4-Dichlorophenoxy)pyridin-2-yl)-N-(2-pyrrolidin-1-ylethyl)benzamide] | 64%
27 | O=C(NCCN1CCCC1)c1cccc(-c2cccc(Oc3cccc(Cl)c3Cl)n2)c1 [Working Example 83, 3-(6-(2,3-Dichlorophenoxy)pyridin-2-yl)-N-(2-pyrrolidin-1-ylethyl)benzamide] | 97%
28 | O=C(NCCO)c1cccc(-c2cccc(Oc3cc(Cl)cc(Cl)c3)n2)c1 [Working Example 87, 3-(6-(3,5-dichlorophenoxy)pyridin-2-yl)-N-(2-hydroxyethyl)benzamide] | 79%
29 | O=C(NCCCO)c1cccc(-c2cccc(Oc3cc(Cl)cc(Cl)c3)n2)c1 [Working Example 88, 3-(6-(3,5-Dichlorophenoxy)pyridin-2-yl)-N-(3-hydroxypropyl)benzamide] | 62%
30 | CC(C)(CO)NC(=O)c1cccc(-c2cccc(Oc3cc(Cl)cc(Cl)c3)n2)c1 [Working Example 91, 3-(6-(3,5-Dichlorophenoxy)pyridin-2-yl)-N-(2-hydroxy-1,1-dimethylethyl)benzamide] | 61%
31 | C[C@H](CC#N)NC(=O)c1cccc(-c2cccc(Oc3cc(Cl)cc(Cl)c3)n2)c1 [Working Example 94, N-((1R)-2-Cyano-1-methylethyl)-3-(6-(3,5-dichlorophenoxy)pyridin-2-yl)benzamide] | 58%
32 | C[S+]([O-])CCNC(=O)c1cccc(-c2cccc(Oc3cc(Cl)cc(Cl)c3)n2)c1 (centres unmarked) [Working Example 96, 3-(6-(3,5-dichlorophenoxy)pyridin-2-yl)-N-(2-(methylsulfinyl)ethyl)benzamide] | 66%
33 | O=C(NCCO)c1cccc(-c2cccc(Sc3ccc(Cl)cc3Cl)n2)c1 [Working Example 101, 3-(6-((2,4-dichlorophenyl)thio)pyridin-2-yl)-N-(2-hydroxyethyl)benzamide] | 53%
34 | COc1ccc(CCNc2nccc(-n3ccc4cc(C(=O)NCCN(C)C)ccc43)n2)cc1OC [Working Example 102, 1-(2-((2-(3,4-Dimethoxyphenyl)ethyl)amino)pyrimidin-4-yl)-N-(2-(dimethylamino)ethyl)-1H-indole-5-carboxamide] | 89%
35 | N#CCCNC(=O)c1cc(-c2cccc(Oc3ccc(Cl)cc3Cl)n2)ccc1F [Working Example 113, N-(2-cyanoethyl)-5-(6-(2,4-dichlorophenoxy)pyridin-2-yl)-2-fluorobenzamide] | 77%
